Experimental data: patent US20250042886A1, “BIS(HETERO)ARYL THIOETHER OXADIAZINES AS FUNGICIDAL COMPOUNDS” (Bayer Aktiengesellschaft, priority 2021, published 2025)

Legend:
Alternaria alternata = Alternaria alternata in vitro cell test; assay type: cell-based; settings: 120 h, liquid culture, 5 days incubation, read-out: efficacy (inhibition of fungal growth); for inhibition at 50 µM: 50 μMol/l of active ingredient
Description: B-5. Alternaria alternata In Vitro Cell Test • Solvent: DMSO • Culture medium: 14.6 g anhydrous D-glucose (VWR), 7.1 g Mycological Peptone (Oxoid), 1.4 g granulated Yeast Extract (Merck), QSP 1 liter • Inoculum: spores suspension Fungicides were solubilized in DMSO and the solution used to prepare the required range of concentrations. […] A spore suspension of A. alternata was prepared and diluted to the desired spore density. Fungicides were evaluated for their ability to inhibit spore germination and mycelium growth in liquid culture assay. The compounds were added in the desired concentration to the culture medium with spores. After 5 days incubation, fungi-toxicity of compounds was determined by spectrometric measurement of mycelium growth. Inhibition of fungal growth was determined by comparing the absorbance values in wells containing the fungicides with the absorbance in control wells without fungicides.

Botrytis cinerea [1] = assay: In vivo preventive test on Botrytis cinerea (grey mould); settings: 500 ppm of active ingredient, sprayed on young gherkin or cabbage plants 24 h before inoculation, evaluated 4 to 5 days after inoculation, read-out: efficacy
In short: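 Compounds in DMSO/acetone/Tween 80 were diluted in water and sprayed onto young gherkin or cabbage plants; controls got solvent only. After 24 h, leaves were sprayed with an aqueous Botrytis cinerea spore suspension.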

Pyrenophora teres = Pyrenophora teres in vitro cell test; assay type: cell-based; settings: 144 h, liquid culture, 6 days incubation, read-out: efficacy (inhibition of fungal growth); for inhibition at 50 µM: 50 μMol/l of active ingredient
In short: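 Compounds in DMSO were added to P. teres spore suspensions in glucose/peptone/yeast-extract liquid medium, testing inhibition of spore germination and mycelium growth. After 6 days, mycelium growth was read by absorbance. Inhibition was calculated relative to fungicide-free control wells.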

[2] = Measurement of Log P values by HPLC on reversed phase columns (EEC directive 79/831 Annex V.A8); assay type: physicochemical; settings: Table 1, compounds of formula (I); method [a]: LC-UV, acidic range, 0.1% formic acid in water and acetonitrile
[3] = test system: Colletotrichum lindemuthianum; assay: Colletotrichum lindemuthianum in vitro cell test; assay type: cell-based; settings: 144 h, liquid culture, 6 days incubation, read-out: efficacy (inhibition of fungal growth); for inhibition at 50 µM: 50 μMol/l of active ingredient
In short: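 C. lindemuthianum spores in liquid glucose–peptone–yeast extract medium were exposed to compounds dissolved in DMSO. After 6 days, mycelial growth was measured by absorbance, and inhibition was calculated against compound-free control wells.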

Pyricularia oryzae = assay: microbe, parasite or virus in culture; assay type: cell-based; settings: 120 h; for inhibition at 50 µM: read-out: efficacy (inhibition of fungal growth), 50 μMol/l of active ingredient, liquid culture, 5 days incubation
Alternaria brassicae = assay: In vivo preventive test on Alternaria brassicae (leaf spot on radish or cabbage); settings: 500 ppm of active ingredient, sprayed on young radish or cabbage plants 24 h before inoculation, evaluated 3 to 4 days after inoculation, read-out: efficacy
Description: (§1) B-1. […] The active ingredients were made soluble and homogenized in a mixture of Dimethyl sulfoxide/Acetone//Tween® 80 and then diluted in water to the desired concentration. The young plants of radish or cabbage were treated by spraying the active ingredient prepared as described above. Control plants were treated only with an aqueous solution of Acetone/Dimethyl sulfoxide/Tween® 80. After 24 hours, the plants were contaminated by spraying the leaves with an aqueous suspension of Alternaria brassicae spores.

[4] = test system: Colletotrichum lindemuthianum; assay: In vivo preventive test on Colletotrichum lindemuthianum (leaf spot on bean); settings: 168 h, 500 ppm of active ingredient, sprayed on young bean plants 24 h before inoculation, evaluated 7 days after inoculation, read-out: efficacy
Description: as §1, with “B-4.” for “B-1.”, “bean” for “radish or cabbage”, “Colletotrichum lindemuthianum” for “Alternaria brassicae”

Fusarium culmorum = Fusarium culmorum in vitro cell test; assay type: cell-based; settings: 120 h, liquid culture, 5 days incubation, read-out: efficacy (inhibition of fungal growth); for inhibition at 50 µM: 50 μMol/l of active ingredient
In short: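 Spores in liquid mineral-salts/saccharose medium exposed to compounds (DMSO ≤1% final) for 5 days. Mycelium growth measured spectrometrically, with inhibition derived from absorbance relative to fungicide-free control wells.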

Botrytis cinerea [5] = assay: Botrytis cinerea in vitro cell test; assay type: cell-based; settings: 144 h, liquid culture, 6 days incubation, read-out: efficacy (inhibition of fungal growth); for inhibition at 50 µM: 50 μMol/l of active ingredient
In short: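 Compounds from DMSO stocks added at a range of concentrations to a defined mineral-salt/sucrose liquid medium inoculated with B. cinerea spores. After 6 days' incubation, mycelium growth was read by absorbance; inhibition of germination and growth was calculated against fungicide-free control wells.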

Septoria tritici = Septoria tritici in vitro cell test; assay type: cell-based; settings: Zymoseptoria tritici, 168 h; 20 ppm of active ingredient; liquid culture, 7 days incubation; read-out: efficacy (inhibition of fungal growth)
Description: B-11. Septoria tritici In Vitro Cell Test • Solvent: DMSO • Culture medium: 1 g KH2PO4 (VWR), 1 g K2HPO4 (VWR), 0.5 g Urea (VWR), 3 g KNO3 (Prolabo), 10 g saccharose (VWR), 0.5 g MgSO4, 7H2O (Sigma), 0.07 g CaCl2, 2H2O (Prolabo), 0.2 mg MnSO4, H2O (Sigma), 0.6 mg CuSO4, 5H2O (Sigma), 7.9 mg ZnSO4, 7H2O (Sigma), 0.1 mg H3BO3 (Merck), 0.14 mg NaMoO4, 2H2O (Sigma), 2 mg thiamine (Sigma), 0.1 mg biotine (VWR), 4 mg FeSO4, 7H2O (Sigma), QSP 1 liter • Inoculum: spore suspension Fungicides were solubilized in DMSO and the solution used to prepare the required range of concentrations. […] A spore suspension of S. tritici was prepared and diluted to the desired spore density. Fungicides were evaluated for their ability to inhibit spore germination and mycelium growth in liquid culture assay. The compounds were added in the desired concentration to the culture medium with spores. […] Inhibition of fungal growth was determined by comparing the absorbance values in wells containing the fungicides with the absorbance in control wells without fungicides.

| SMILES | inhibition at 50 µM (Alternaria alternata) | pest or weed control at 500 ppm (Botrytis cinerea [1]) | inhibition at 50 µM (Pyrenophora teres) | chromatographic logP [2] | inhibition at 50 µM [3] | inhibition at 50 µM (Pyricularia oryzae) | pest or weed control at 500 ppm (Alternaria brassicae) | pest or weed control at 500 ppm [4] | inhibition at 50 µM (Fusarium culmorum) | inhibition at 50 µM (Botrytis cinerea [5]) | inhibition at 20 ppm (Alternaria alternata; 20 ppm of active ingredient) | inhibition at 20 ppm (Pyrenophora teres; 20 ppm of active ingredient) | inhibition at 20 ppm ([3]; 20 ppm of active ingredient) | inhibition at 20 ppm (Pyricularia oryzae; read-out: efficacy (inhibition of fungal growth), 20 ppm of active ingredient, liquid culture, 5 days incubation) | inhibition at 20 ppm (Septoria tritici) | inhibition at 20 ppm (Fusarium culmorum; 20 ppm of active ingredient) | inhibition at 20 ppm (Botrytis cinerea [5]; 20 ppm of active ingredient) |
| --- | --- | --- | --- | --- | --- | --- | --- | --- | --- | --- | --- | --- | --- | --- | --- | --- | --- |
| Cc1ccc([C@H]2CON=C(c3c(Sc4cccc(Cl)c4F)nnc4ccccc34)N2)s1 (racemic) [Compound I-108] | 90 to 100% | 90 to 100% | 90 to 100% | 3.68 | 90 to 100% | 90 to 100% | 90 to 100% | 90 to 100% | 90 to 100% | 90 to 100% | – | – | – | – | – | – | – |
| Cc1cccc(Sc2nnc3ccccc3c2C2=NOC[C@H](c3ccc(C)s3)N2)c1 (racemic) [Compound I-062] | 90 to 100% | 90 to 100% | 90 to 100% | 3.47 | 90 to 100% | 80 to 89% | 90 to 100% | 90 to 100% | 90 to 100% | 90 to 100% | – | – | – | – | – | – | – |
| Cc1cccc(Sc2nnc(C)c(C)c2C2=NOCC(c3ccc(C)s3)N2)c1 (racemic) [Compound I-095, (5RS)-3-[5,6-dimethyl-3-(m-tolylsulfanyl)pyridazin-4-yl]-5-(5-methyl-2-thienyl)-5,6-dihydro-4H-1,2,4-oxadiazine] | – | 90 to 100% | – | 2.99 | 90 to 100% | 70 to 79% | 90 to 100% | 70 to 79% | 70 to 79% | 90 to 100% | – | – | – | – | – | – | – |
| Cc1cccc(Sc2nnc(C)c(C)c2C2=NOC[C@H](c3cc(C)sc3C)N2)c1 (racemic) [Compound I-078] | 80 to 89% | 90 to 100% | 90 to 100% | 3.33 | 90 to 100% | 80 to 89% | 90 to 100% | 90 to 100% | 80 to 89% | 90 to 100% | – | – | – | – | – | – | – |
| Clc1cccc(Sc2cnc(Cl)cc2C2=NOC[C@@H](Cc3ccc(Cl)cc3Cl)N2)c1 (racemic) [Compound I-008] | – | – | – | 4.9 | – | – | – | – | – | – | 80 to 89% | 90 to 100% | 90 to 100% | 90 to 100% | 90 to 100% | 90 to 100% | 90 to 100% |
| Cc1ccc([C@@H]2CON=C(c3c(Sc4cccc(C(F)(F)F)c4)nnc(C)c3C)N2)s1 (racemic) [Compound I-044] | 70 to 79% | 90 to 100% | 90 to 100% | 3.36 | 90 to 100% | 80 to 89% | – | 90 to 100% | – | 90 to 100% | – | – | – | – | – | – | – |
| COc1cccc(Sc2nnc(C)c(C)c2C2=NOC[C@@H](c3cc(C)sc3C)N2)c1 (racemic) [Compound I-079] | 70 to 79% | 90 to 100% | 80 to 89% | 3.11 | 90 to 100% | 70 to 79% | – | 80 to 89% | 90 to 100% | 90 to 100% | – | – | – | – | – | – | – |
